Assays:
[1] = tested on: LPS induced septic shock in normal BALB/c mice; settings: cited from earlier work
[2] = tested on: MBP induced formation of EAE in PJSJL mice; settings: cited from earlier work
[3] = tested on: cuprisone induced changes in the central nervous system of C57BL/6 mice (hydrocephalus); assay: Cuprizone induced hydrocephalus determined with MRI (chamber/brain volume ratio); assay type: in vivo; settings: cuprizone-treated mice, after 5 weeks of treatment, i.p.
Protocol: (§1) During the experiment C57BL/6 mice were kept in a standard environment, they were given tap water and ground mice feed ad libitum. The mice were taken care of according to ethical requirements relating to treatment of animals.
(§2) According to a previously described method [Journal of Neuroimmunology 92 (1998): 38-49], 7-8 week old C57BL/6 male mice were treated for 6 weeks per os with cuprizone (Sigma, Steinheim, Germany). The mice were divided into 5 groups with 8 mice in each group.
(§3) Oxidation of cuprizone was prevented by giving fresh feed to the mice every day. PARP inhibitors and/or Akt kinase activating agents were placed in physiological saline solution, filtered to sterility, and administered intraperitoneally in the proper dosage. […] Control animals were given i.p. an amount of sterile physiological solution corresponding to their bodymass.
(§4) It is known from the literature (NMR Biomed. 2005 Oct.; 18(6):395-403) that T1 and T2 MRI image intensity correlates with the degradation and regeneration of the myelin sheath in this model. Oedema and hydrocephalus registers as hyperintensity on the T2 image. For quantification of hydrocephalus MRI is more suitable than histology because during fixation and histological processing there is significant shrinkage and volume degradation (Exp. Neurology 118 (1992): 1-6). MRI micro image technique makes it possible to study the above changes in vivo for weeks.
(§5) After three weeks, the mice were placed into the NMR instrument in narcosis every week [5 mg/kg bodymass diazepam (Seduxen) and 90 mg/kg bodymass ketamine (Calypsol, Richter Gedeon Zrt., Budapest) intraperitoneally]. T1 and T2 images were acquired with Varian ^uNITYIINOVA NMR spectrometer from the bulbus olfactorius to the beginning of the spinal cord in transverse sections of 1 mm thickness. Signal intensity of a glass tube with 1 mm internal diameter, which was filled with 9:1 water-glycerin mixture, was used as outer control. The development and size of demyelinization was determined by comparing average signal intensity detected at the area of the corpus callosum with the average intensity of the outer control. Average signal intensity of the corpus callosum (CC) was determined by an expert who was blind to the experiment from the section 1 mm posterior to the bregma by manually marking the region of interest (ROI), i.e. the corpus callosum (CC). Intensity of ROI was normalized to the intensity of the control tube.
The development and the degree of hydrocephalus were quantified by calculating the chamber/brain volume ratio. The area of the chambers was outlined manually in each section, and the whole volume was calculated as the sum of the areas multiplied with the thickness of the sections (1 mm). The same method was used for the determination of the […].

[4] = tested on: cuprisone induced changes in the central nervous system of C57BL/6 mice (corpus callosum demyelinization); assay: Cuprizone induced demyelinization determined with MRI (CC/control tube intensity); assay type: in vivo; settings: cuprizone-treated mice, after 5 weeks of treatment, i.p.
Protocol: as §1, §2, §3, §4, §5

[5] = Example 1, doxycycline 1 mg/kg, estriol 0,4 mg/kg bodymass
[6] = Example 2, doxycycline 1 mg/kg, trans-resveratrol 0,4 mg/kg bodymass
[7] = Example 3, 4-HQ 20 mg/kg, trans-resveratrol 0,4 mg/kg bodymass
[8] = Example 4, Carb 2 mg/kg, trans-resveratrol 0.4 mg/kg bodymass

SMILES | prevention of LPS induced septic shock [1] | MBP induced formation of EAE [2] | Chamber/brain vol. ratio (hydrocephalus) [3, 5] | Chamber/brain vol. ratio (hydrocephalus) [3, 6] | CC/control tube (demyelinization) [4, 5] | CC/control tube (demyelinization) [4, 6] | Chamber/brain vol. ratio (hydrocephalus) [3, 7] | Chamber/brain vol. ratio (hydrocephalus) [3, 8] | CC/control tube (demyelinization) [4, 7] | CC/control tube (demyelinization) [4, 8]
CN(C)CC(=O)Nc1ccc2[nH]c(=O)c3ccccc3c2c1.Cl [PJ-34, N-(6-oxo-5 ,6-dihydrophenanthridin-2-yl)-N,N-dimethylacetamide.HCl] | successful in preventing LPS induced septic shock | effectively decreased | – | – | – | – | – | – | – | –
C[C@H]1c2cccc(O)c2C(=O)C2=C(O)[C@]3(O)C(=O)C(C(N)=O)=C(O)[C@@H](N(C)C)[C@@H]3[C@@H](O)[C@@H]21 [doxycycline] | – | – | 0.128 ± 0.012 | 0.117 ± 0.02 | 1.1 ± 0.18 | 1.2 ± 0.17 | – | – | – | –
C[C@]12CC[C@@H]3c4ccc(O)cc4CC[C@H]3[C@@H]1C[C@@H](O)[C@@H]2O [estriol] | – | – | 0.134 ± 0.02 | – | 1.2 ± 0.13 | – | – | – | – | –
Oc1ccc(/C=C/c2cc(O)cc(O)c2)cc1 [resveratrol, trans-resveratrol] | – | – | – | 0.138 ± 0.017 | – | 1.3 ± 0.09 | 0.138 ± 0.017 | 0.138 ± 0.017 | 1.3 ± 0.09 | 1.3 ± 0.09
